From US20070111258A1, “Compositions and methods for modulating the acute phase response” (priority 2005, published 2007) come the findings set out here.

One assay deals with CREBH. In words: Endogenous CREBH cleavage in mouse liver (Western blot). The class given is in vivo. As to conditions: wild-type mice; 24 hours after i.p. injection.
In a further assay the test system is CRP. Nature of the assay: Serum CRP in CREBH knockdown and control RNAi mice (ELISA). The assay is classed as in vivo, mouse. Conditions: 24 hours after injection. The protocol: (A) Identification of CREBH knockdown mice by Northern blot analysis. Transgenic mice with empty vector lentivirus expressing GFP were used as controls. Total RNAs (15 μg/lane) were isolated from the livers of the CREBH RNAi or the control mice, and subjected to Northern blot analysis. A 260 bp GFP cDNA fragment and a 210 bp mouse CREBH cDNA fragment were used as probes for detecting levels of GFP mRNA and CREBH mRNA, respectively. Levels of ββ-actin mRNA were determined for control of sample loading. (B) Morphology of CREBH knockdown embryos. The embryos were collected at gestation stage E14.5. The paraffin-embedded embryo sections were stained with hematoxylin and eosin. Magnification: 20 X. (C) Northern blot analysis of levels of CREBH, CRP and SAP mRNA in the livers of the CREBH knockdown or the control mice. Levels of β-actin mRNA were determined for sample loading controls. (D-E) Serum levels of SAP and CRP in the CREBH knockdown and the siRNA control mice in response to IL6 plus IL1β LPS or Tm. CREBH knockdown and RNAi control mice at 3-months of age were challenged with recombinant mouse IL6 (25 ng/gram body weight) plus recombinant mouse IL1β (25 ng/gram body weight), LPS (3 μg/gram body weight) or Tm (2 mg/kg body weight). Serum levels of SAP and CRP in the mice were determined before injection and at 24 hours after IL6 plus IL1β, LPS or Tm injection. […]

For a further assay, the system named is CREBH mRNA. Nature of the assay: CREBH mRNA induction in H2.35 cells (Northern blot, quantitative real-time RT-PCR). The class given is cell-based. Conditions: murine H2.35 hepatoma cells; IL6 40 ng/ml, TNFα 20 ng/ml, IL1β 40 ng/ml, DTT 5 mM, Tg 0.5 μM, Tm 5 μg/ml, BFA 0.5 μg/ml; 4, 8, 12 hours. The protocol: FIG. 1 depicts the induction of expression of CREBH during fetal liver development and by proinflammatory cytokines. (A) Structural comparison of CREBH and ATF6. The domains are indicated by residue numbers of amino acids. (B) Northern blot analysis of CREBH mRNA levels in various tissues from mice. Tissue samples were collected from 3-month-old wild-type C57BL/6J mice. Levels of β-actin mRNA were determined for control of sample loading. (C) Expression profile of CREBH mRNA in fetal livers during embryogenesis. (D) Induction of CREBH mRNA in murine hepatoma cell line H2.35 under IL6 (40 ng/ml) stimulation for various time points. For panels A-D, experiments were performed at least 3 times and representative data are shown.
FIG. 2 depicts the analysis of gene expression in H2.35 cells. H2.35 cells were treated with 20 ng/ml TNFα, 40 ng/ml IL1β, 20 μg.ml LPS, 5 mM DTT, 0.5 μM Tg, 5 μg/ml Tm or 0.5 μg/ml BFA for 4, 8 and 12 hours, respectively. Levels of CREBH mRNA (A) and spliced XBP1 mRNA (B) in H2.35 were determined by quantitative real-time RT-PCR. Fold changes of mRNA induction were determined after normalization of the mRNA levels to internal control 18S ribosomal RNA levels. […] However, expression from the SAP or CRP promoter-reporter plasmids is sufficiently measurable in H2.35 cells so that it is possible to investigate transcriptional activation effects of CREBH on the CRP and SAP promoters by reporter assays in H2.35 cells. These reporter experiments are not possible in non-hepatocyte cell lines. However, for non-hepatocyte cell lines, such as wild-type and mutant CHO cells, CREBH cleavage and activation could be measured using the UPRE reporter assay. (C) Summary of stimuli that induce CREBH mRNA, NF-κB activation and the UPR in H2.35 and HepG2 cells. (D) Expression of BiP and GRP94 in H2.35 cells over-expressing CREBH or ATF6. H2.35 cells in a 35 mm collagen-coated plate were transfected with 1.5 μg empty DNA vector, vector expressing the nuclear form of CREBH (CREBH-N) or vector expressing nuclear form of ATF6 (ATF6 p50), respectively. Expression levels of BiP and GRP 94 were determined by Western blot analysis by using a murine and —BiP monoclonal antibody and a murine anti-GRP94 monoclonal antibody, respectively. The membranes were re-blotted with an anti-α-actin antibody for control of sample loading.
Northern blot analysis was performed according to standard procedures (Sambrook et al., 1989). ^32P-labeled probes were prepared using a random prime labeling system (Amersham Pharmacia, Piscataway, N.J., USA). A 210 bp mouse CREBH cDNA fragment, a 250 bp mouse CRP cDNA fragment and a 260 bp mouse SAP cDNA fragment were amplified from murine total RNA by reverse transcription-PCR system (Roche Applied Science), respectively, and were used as probes for Northern blot analyses. Total RNA (15 μg) per sample purified from cultured cells or murine tissues was used for Northern blot analysis. Quantitative real-time RT-PCR was performed as previously described (Back et al., 2005). Briefly, total cellular RNA prepared was reverse-transcribed to cDNA using a random primer (Applied Biosystems). The reaction mixture, containing SYBR Green PCR Master Mix (Applied Biosystems), was run in a 7900HT Fast Real-Time PCR System (Applied Biosystems). Real-time PCR primer sequences for quantification of murine XBP1 mRNA splicing are: the forward primer 5′-[…]-3′, and the reverse primer 5′-[…]-3′. Other primer sequences were designed by Primer Express (Applied Biosystems).

For tunicamycin [Tm], the “cleaved form of CREBH in the livers” value with CREBH is reported as “cleaved form of CREBH was increased”. The figures for the “increase of serum levels of CRP” value in the assay with CRP (control RNAi mice) and in the assay on CRP (treated CREBH knockdown mice) were “approximately 2 fold” and “no such increase”, respectively. Further, the “induction of CREBH mRNA” value in the assay with CREBH mRNA was “minor effect”.
